The test concerns CD2F1 mice, L1210 leukemia ip, survival T/C. In words: NCI In Vivo Anticancer Drug Screen. Data for tumor model L1210 Leukemia (intraperitoneal) in CD2F1 (CDF1) mice. Conditions: higher = longer survival. In a few lines:
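Mice carrying a transplanted tumor received test compound or vehicle alone. The value is the measurement in the treated group divided by that in the vehicle-treated control group.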

The mark [1] stands for this setting: endpoint: mean survival time, dose: 100.0 mg/kg/injection, schedule: Q04DX003 (ip), vehicle: saline with Tween-80.
[2] abbreviates: endpoint: mean survival time, dose: 100.0 mg/kg/injection, schedule: Q01DX009 (ip), vehicle: saline with Tween-80.
[3] abbreviates: endpoint: mean survival time, dose: 200.0 mg/kg/injection, schedule: Q01DX009 (ip), vehicle: saline with Tween-80.
Where [4] appears, read: endpoint: mean survival time, dose: 400.0 mg/kg/injection, schedule: Q01DX009 (ip), vehicle: saline with Tween-80.
The mark [5] stands for this setting: endpoint: mean survival time, dose: 100.0 mg/kg/injection, schedule: Q04DX002 (ip), vehicle: saline with Tween-80.
Setting [6] is: endpoint: mean survival time, dose: 200.0 mg/kg/injection, schedule: Q04DX002 (ip), vehicle: saline with Tween-80.
Where [7] appears, read: endpoint: mean survival time, dose: 400.0 mg/kg/injection, schedule: Q04DX002 (ip), vehicle: saline with Tween-80.
The mark [8] stands for this setting: endpoint: mean survival time, dose: 200.0 mg/kg/injection, schedule: Q04DX003 (ip), vehicle: saline with Tween-80.
Setting [9] is: endpoint: mean survival time, dose: 400.0 mg/kg/injection, schedule: Q04DX003 (ip), vehicle: saline with Tween-80.

Toxic doses and inconclusive results are not listed.

In the case of `CCC[CH2][Sn]([CH2]CCC)([O]C(=O)COc1ccc(C(=O)c2ccccc2)c(O)c1)[O]C(=O)COc1ccc(C(=O)c2ccccc2)c(O)c1`, the T/C is 95 % of control (endpoint: mean survival time, dose: 1.56 mg/kg/injection, schedule: Q01DX001 (ip), vehicle: saline with Tween-80); 98 % of control (endpoint: mean survival time, dose: 3.13 mg/kg/injection, schedule: Q01DX001 (ip), vehicle: saline with Tween-80); 98 % of control (endpoint: mean survival time, dose: 6.25 mg/kg/injection, schedule: Q01DX001 (ip), vehicle: saline with Tween-80); 105 % of control (endpoint: mean survival time, dose: 12.5 mg/kg/injection, schedule: Q01DX001 (ip), vehicle: saline with Tween-80).

With `O=P(OCc1ccccc1)(N(CCCl)CCCl)N1CCN(P(=O)(OCc2ccccc2)N(CCCl)CCCl)CC1` (stereo not drawn), the T/C is 104 % of control (endpoint: mean survival time, dose: 128.0 mg/kg/injection, schedule: Q01DX Z (ip), vehicle: saline); 107 % of control (endpoint: mean survival time, dose: 256.0 mg/kg/injection, schedule: Q01DX Z (ip), vehicle: saline); 113 % of control (endpoint: mean survival time, dose: 512.0 mg/kg/injection, schedule: Q01DX Z (ip), vehicle: saline).

`Cc1cccc(-n2c(N)cc(=O)[nH]c2=S)n1`: the T/C under setting [1] was 96 % of control.

As for `NC(=O)NC1CCCC1`, the T/C reads like this: under setting [2], 107 % of control; under setting [3], 107 % of control; under setting [4], 107 % of control.

With `CCOC(=O)CC(=O)c1ccccc1`, the T/C was 96 % of control under setting [2], 102 % of control under setting [3] and 89 % of control under setting [4].

On to `CC(=O)NCCc1ccccc1`, for which the T/C was 109 % of control (endpoint: mean survival time, dose: 100.0 mg/kg/injection, schedule: Q01DX009 (ip), vehicle: Klucel (hydroxypropylcellulose) (HPC)); 103 % of control (endpoint: mean survival time, dose: 100.0 mg/kg/injection, schedule: Q04DX003 (ip), vehicle: saline sonified); 102 % of control (endpoint: mean survival time, dose: 200.0 mg/kg/injection, schedule: Q01DX009 (ip), vehicle: Klucel (hydroxypropylcellulose) (HPC)); 109 % of control (endpoint: mean survival time, dose: 200.0 mg/kg/injection, schedule: Q04DX003 (ip), vehicle: saline sonified); 104 % of control (endpoint: mean survival time, dose: 400.0 mg/kg/injection, schedule: Q01DX009 (ip), vehicle: Klucel (hydroxypropylcellulose) (HPC)); 97 % of control (endpoint: mean survival time, dose: 400.0 mg/kg/injection, schedule: Q04DX003 (ip), vehicle: saline sonified).

As to `CNNCc1c[nH]c(=O)[nH]c1=O`, the T/C (endpoint: mean survival time, dose: 25.0 mg/kg/injection, schedule: Q01DX009 (ip), vehicle: water) was 110 % of control; the T/C (endpoint: mean survival time, dose: 50.0 mg/kg/injection, schedule: Q01DX009 (ip), vehicle: water) was 102 % of control; the T/C (endpoint: mean survival time, dose: 100.0 mg/kg/injection, schedule: Q01DX009 (ip), vehicle: water) was 102 % of control; the T/C (endpoint: mean survival time, dose: 200.0 mg/kg/injection, schedule: Q01DX009 (ip), vehicle: water) was 93 % of control; the T/C (endpoint: mean survival time, dose: 400.0 mg/kg/injection, schedule: Q01DX009 (ip), vehicle: water) was 100 % of control.

With `NC(=O)N/N=C1/CC2CC1C1C=CCC21` (stereo not drawn), the T/C by setting is: under setting [5], 102 % of control; under setting [6], 107 % of control; under setting [7], 98 % of control.

With `COC(=O)[C@]1(C)CCC[C@]2(C)c3cc(C(C)=O)c(C(C)C)cc3CC[C@@H]12`, the T/C runs as follows: under setting [2], 97 % of control; under setting [3], 97 % of control; under setting [4], 100 % of control.

As to `N#CCc1ccc(N=Nc2c(N)nc(N)[nH]c2=O)cc1`, the T/C was 99 % of control under setting [2], 96 % of control under setting [3] and 87 % of control under setting [4].

On to `O=c1[nH]c(-c2ccccc2)nc(-c2ccccc2)c1CCO`, for which the T/C is 95 % of control under setting [1], 91 % of control under setting [8] and 106 % of control under setting [9].

Turning to `CN(C)/N=C(\CBr)c1ccc([N+](=O)[O-])cc1`, the T/C reads like this: (endpoint: mean survival time, dose: 100.0 mg/kg/injection, schedule: Q01DX001 (ip), vehicle: saline) 100 % of control; (endpoint: mean survival time, dose: 200.0 mg/kg/injection, schedule: Q01DX001 (ip), vehicle: saline) 94 % of control.

As for `O=S(=O)(CCBr)CCBr`, the T/C reads like this: under setting [2], 95 % of control; under setting [1], 109 % of control; under setting [3], 86 % of control; under setting [8], 107 % of control; under setting [4], 100 % of control; under setting [9], 88 % of control.

On to `CC(O)C(NC(=O)c1cnc(=O)[nH]c1N)C(=O)O` (stereo not drawn), for which the T/C is 105 % of control (endpoint: mean survival time, dose: 25.0 mg/kg/injection, schedule: Q01DX009 (ip), vehicle: saline with Tween-80); 102 % of control (endpoint: mean survival time, dose: 50.0 mg/kg/injection, schedule: Q01DX009 (ip), vehicle: saline with Tween-80); 102 % of control under setting [2].

Regarding `C/C=C\C1OC1(C)c1cc(=O)c2c(C)cc3c(c2o1)C(=O)c1c(O)c(C2CC(C)(N(C)C)C(OC(C)=O)C(C)O2)cc(C2CC(N(C)C)C(O)C(C)O2)c1C3=O` (stereo not drawn), the T/C was 102 % of control (endpoint: mean survival time, dose: 0.35 mg/kg/injection, schedule: Q04DX003 (ip), vehicle: saline with Tween-80); 124 % of control (endpoint: median survival time, dose: 0.22 mg/kg/injection, schedule: Q01DX005 (ip), vehicle: saline + alcohol); 120 % of control (endpoint: median survival time, dose: 0.25 mg/kg/injection, schedule: Q01DX005 (ip), vehicle: saline + alcohol); 120 % of control (endpoint: median survival time, dose: 0.36 mg/kg/injection, schedule: Q01DX005 (ip), vehicle: saline + alcohol); 120 % of control (endpoint: median survival time, dose: 1.0 mg/kg/injection, schedule: Q01DX005 (ip), vehicle: saline + alcohol); 172 % of control (endpoint: median survival time, dose: 2.78 mg/kg/injection, schedule: Q01DX005 (ip), vehicle: saline + alcohol).

Take `COc1c(C)c2c(c(O)c1CC(=O)Nc1ccccc1C(=O)O)C(=O)OC2`: the T/C is 96 % of control (endpoint: mean survival time, dose: 100.0 mg/kg/injection, schedule: Q04DX002 (ip), vehicle: saline); 100 % of control (endpoint: mean survival time, dose: 200.0 mg/kg/injection, schedule: Q04DX002 (ip), vehicle: saline); 91 % of control (endpoint: mean survival time, dose: 400.0 mg/kg/injection, schedule: Q04DX002 (ip), vehicle: saline).

Turning to `CCCCCC[Se][Se]CCCCCC`, the T/C (endpoint: median survival time, dose: 1.56 mg/kg/injection, schedule: Q01DX009 (ip), vehicle: Klucel (hydroxypropylcellulose) (HPC)) was 98 % of control; the T/C (endpoint: median survival time, dose: 3.12 mg/kg/injection, schedule: Q01DX009 (ip), vehicle: Klucel (hydroxypropylcellulose) (HPC)) was 100 % of control; the T/C (endpoint: median survival time, dose: 6.25 mg/kg/injection, schedule: Q01DX009 (ip), vehicle: Klucel (hydroxypropylcellulose) (HPC)) is 101 % of control; the T/C (endpoint: median survival time, dose: 12.5 mg/kg/injection, schedule: Q01DX009 (ip), vehicle: Klucel (hydroxypropylcellulose) (HPC)) is 97 % of control.

For `COC(=O)/C=C/c1ccc(O)cc1`, the T/C is 102 % of control (endpoint: mean survival time, dose: 100.0 mg/kg/injection, schedule: Q01DX001 (ip), vehicle: saline sonified); 101 % of control under setting [5]; 102 % of control (endpoint: mean survival time, dose: 200.0 mg/kg/injection, schedule: Q01DX001 (ip), vehicle: saline sonified); 101 % of control under setting [6]; 102 % of control (endpoint: mean survival time, dose: 400.0 mg/kg/injection, schedule: Q01DX001 (ip), vehicle: saline sonified); 96 % of control under setting [7].

Turning to `CC1=C/C(=N/Nc2ccc([N+](=O)[O-])cc2[N+](=O)[O-])CC(C)(C)C1`, the T/C runs as follows: (endpoint: mean survival time, dose: 100.0 mg/kg/injection, schedule: Q01DX001 (ip), vehicle: saline with Tween-80) 92 % of control; (endpoint: mean survival time, dose: 200.0 mg/kg/injection, schedule: Q01DX001 (ip), vehicle: saline with Tween-80) 90 % of control; (endpoint: mean survival time, dose: 400.0 mg/kg/injection, schedule: Q01DX001 (ip), vehicle: saline with Tween-80) 95 % of control.

`COc1ccc(C(=O)C(=O)c2ccccc2Cl)cc1`: the T/C under setting [5] is 98 % of control, the T/C under setting [6] was 102 % of control and the T/C under setting [7] is 95 % of control.

With `O=c1[nH]c2cc(Br)ccc2c2ccc(Br)cc12`, the T/C (endpoint: mean survival time, dose: 50.0 mg/kg/injection, schedule: Q01DX001 (ip), vehicle: carboxymethylcellulose (CMC)) is 95 % of control; the T/C (endpoint: mean survival time, dose: 100.0 mg/kg/injection, schedule: Q01DX001 (ip), vehicle: carboxymethylcellulose (CMC)) was 98 % of control; the T/C (endpoint: mean survival time, dose: 200.0 mg/kg/injection, schedule: Q01DX001 (ip), vehicle: carboxymethylcellulose (CMC)) is 101 % of control; the T/C (endpoint: mean survival time, dose: 400.0 mg/kg/injection, schedule: Q01DX001 (ip), vehicle: carboxymethylcellulose (CMC)) was 104 % of control.

As for `CC(=O)Nc1ccccc1C`, the T/C is 97 % of control under setting [1], 97 % of control under setting [8] and 99 % of control under setting [9].

In the case of `CCCC(=O)Nc1ccc([N+](=O)[O-])cc1OC`, the T/C is, setting by setting: under setting [1], 96 % of control; under setting [8], 102 % of control; under setting [9], 104 % of control.

The record behind these values is PubChem BioAssay AID256 (DTP/NCI, 2004).
